# Columns and labels:
# SHIP2 = target: T1, SHIP2 (Homo sapiens, UniProt O15357); assay: Malachite green phosphatase release assay, SHIP2; assay type: biochemical
# T1 construct: purchased Echelon Biosciences
# T1 sequence (O15357 1-1258): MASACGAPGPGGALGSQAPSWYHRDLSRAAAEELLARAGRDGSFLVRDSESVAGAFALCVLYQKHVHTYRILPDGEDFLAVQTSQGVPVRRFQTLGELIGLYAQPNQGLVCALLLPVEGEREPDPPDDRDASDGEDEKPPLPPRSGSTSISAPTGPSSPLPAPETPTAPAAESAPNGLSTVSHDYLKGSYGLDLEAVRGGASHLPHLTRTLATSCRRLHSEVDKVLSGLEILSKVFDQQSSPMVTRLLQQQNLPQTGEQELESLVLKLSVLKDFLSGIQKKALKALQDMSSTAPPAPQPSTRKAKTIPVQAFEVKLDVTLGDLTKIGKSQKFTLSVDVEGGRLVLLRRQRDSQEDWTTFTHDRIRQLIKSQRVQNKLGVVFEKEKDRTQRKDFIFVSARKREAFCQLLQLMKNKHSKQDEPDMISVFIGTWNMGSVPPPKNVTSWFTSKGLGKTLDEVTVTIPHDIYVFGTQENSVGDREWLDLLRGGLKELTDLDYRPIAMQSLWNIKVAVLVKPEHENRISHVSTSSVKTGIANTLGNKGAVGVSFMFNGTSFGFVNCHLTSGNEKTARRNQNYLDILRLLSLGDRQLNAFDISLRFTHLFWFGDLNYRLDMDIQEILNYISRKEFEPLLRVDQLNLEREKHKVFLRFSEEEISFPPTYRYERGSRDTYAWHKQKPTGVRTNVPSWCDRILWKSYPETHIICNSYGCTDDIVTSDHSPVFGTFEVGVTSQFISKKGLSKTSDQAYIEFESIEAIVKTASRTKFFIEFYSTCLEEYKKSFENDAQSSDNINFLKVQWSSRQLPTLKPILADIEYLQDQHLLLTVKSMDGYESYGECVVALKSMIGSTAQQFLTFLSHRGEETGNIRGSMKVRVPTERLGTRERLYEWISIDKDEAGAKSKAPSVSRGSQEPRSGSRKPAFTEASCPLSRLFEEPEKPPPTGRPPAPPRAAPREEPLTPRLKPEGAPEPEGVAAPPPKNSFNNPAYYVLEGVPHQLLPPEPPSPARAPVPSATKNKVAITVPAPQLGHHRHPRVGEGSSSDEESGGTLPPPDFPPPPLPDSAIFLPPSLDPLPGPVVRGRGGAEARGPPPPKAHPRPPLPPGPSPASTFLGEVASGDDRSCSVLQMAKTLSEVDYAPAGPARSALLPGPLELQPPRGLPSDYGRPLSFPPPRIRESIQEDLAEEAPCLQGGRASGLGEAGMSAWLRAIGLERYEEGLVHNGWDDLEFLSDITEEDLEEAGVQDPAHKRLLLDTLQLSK
# Description: (§1) These compounds were then tested for their activity against the two SHIP paralogs, SHIP1 and SHIP2 in the colorimetric malachite green phosphatase assay. The malachite green assay detects the amount of free phosphate produced from enzymatic reactions with SHIP and an inositol phospholipid substrate.
# (§2) 4.7. Malachite Green Phosphatase Release Assays
# (§3) Malachite green assays to monitor phosphatase release (Echelon Biosciences) were performed with recombinant human truncated SHIP1 (tSHIP1) and SHIP2 (Echelon Biosciences). Serial dilutions of the compounds dissolved in DMSO were added to the recombinant enzymes diluted in reaction buffer Rx (50 mM Hepes pH 7.4, 150 mM NaCl, 1 mM MgCl2, 0.25 mM EDTA) in triplicate reaction wells in 96-well plates. After incubation for 2 min at room temperature, 2.5 µL of 1 mM phosphatidylinositol 3,4,5-trisphosphate diC8 (PI(3,4,5)P3-diC8, Echelon Biosciences) was added to each reaction to a final concentration of 100 µM in a final volume of 25 µL /well. Following a 20 min incubation at 37 °C, 100 µL of Malachite Green solution (Echelon Biosciences) was added to each well and the plates were incubated at room temperature in the dark for 15 min. Plates were then read at 620 nm on a plate reader (Synergy 2, BioTek, Santa Clara, CA, USA). In addition, 3α-Aminocholestane, a known SHIP1 inhibitor, and AS1949490, a known SHIP2 inhibitor, were used as positive controls.
# OCRL = tested on: OCRL; set-up: method as in PMID 22033675; conditions: cited from earlier work
# multiple myeloma cells = tested on: multiple myeloma cells; set-up: method as in PMID 22033675; conditions: followed by caspase cascade activation leading to extensive apoptosis; cited from earlier work
# tSHIP1 = target: T2, tSHIP1 (Homo sapiens, UniProt Q92835); assay: Fluorescence Polarization (FP) assay for the detection of PI(3,4)P2, SHIP1; assay type: biochemical
# T2 sequence (Q92835 399-715 limits assumed): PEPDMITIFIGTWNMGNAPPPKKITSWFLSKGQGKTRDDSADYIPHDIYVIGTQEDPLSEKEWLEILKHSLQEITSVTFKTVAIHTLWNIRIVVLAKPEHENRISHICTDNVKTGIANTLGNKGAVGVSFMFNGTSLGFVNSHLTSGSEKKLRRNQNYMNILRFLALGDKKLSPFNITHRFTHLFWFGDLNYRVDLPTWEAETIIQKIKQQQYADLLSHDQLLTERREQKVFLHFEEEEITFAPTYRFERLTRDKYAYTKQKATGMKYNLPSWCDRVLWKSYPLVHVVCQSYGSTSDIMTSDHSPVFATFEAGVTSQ
# Description: as §1
# 4.8. Fluorescence Polarization (FP) Assays for the Detection of PI(3,4)P2
# The FP Assay for the detection of PI(3,4)P2 (Echelon Biosciences) was performed using tSHIP1 [48] with serial dilutions of the tryptamines in DMSO according to the manufacturer’s recommendation as previously described. […] 40 µL of 4 µM PIP3 (PI(3,4,5)P3-diC8) in Rx buffer is added to each reaction and incubated at 37 °C for 20 min, followed by heat inactivation for 3 min at 95 °C. Reactions were spun down briefly and 10 µL of each reaction was added in 6 replicate wells to a black 384-well plate provided with the FP kit. 10 µL of 1X reconstituted Detector (a phosphoinositide binding protein) in PBS is then added to each well, followed by 5 µL of 1X freshly diluted Probe (in PBS, a fluorophore-labeled phosphoinositide) protected from light. Assay plates are gently tapped to mix, the plate is sealed and spun down briefly and the reaction is allowed to equilibrate for 60 min at room temperature protected from light.
# [1] = tested on: several cell lines, especially breast cancer cells; set-up: method as in PMID 22033675, PMID 27716613; conditions: cited from earlier work
# mice = assay: Side effect observed in mice; conditions: in vivo
# [2] = tested on: recombinant human truncated SHIP1 (tSHIP1); assay: Malachite green phosphatase release assay, SHIP1; assay type: biochemical
# Description: These compounds were then tested for their activity against the two SHIP paralogs, SHIP1 and SHIP2 in the colorimetric malachite green phosphatase assay. The malachite green assay detects the amount of free phosphate produced from enzymatic reactions with SHIP and an inositol phospholipid substrate. The Malachite assay is useful for ruling out compounds that are fluorescent or have aggregation issues and is inexpensive, so it was utilized as the primary screen even though it is not as sensitive as other assays.
# as §2, §3
smiles,measurement,setting,value
"CSc1ccc2c(c1)c(CCN)c(C)n2Cc1ccccc1Cl.Cl [Compound 1, 2-(1-(2-Chlorobenzyl)-2-methyl-5-(methylthio)-1H-indol-3-yl)ethanaminium chloride]",inhibition at 250 µM,"SHIP2; 250 µM compound, read-out: Malachite (250 µM) % Inhib. SHIP2",7%
same,inhibition at 500 µM,"SHIP2; 500 µM compound, read-out: Malachite (500 µM) % Inhib. SHIP2",59%
same,activity against SHIP2 (in words),SHIP2; summary of Table 1,significant activity
same,effect on OCRL,OCRL,no effect
same,cell cycle effect in multiple myeloma cells,multiple myeloma cells,G2/M cell cycle arrest
same,IC50,tSHIP1,5 µM
same,antitumor effects on cell lines,[1],significant antitumor effects
same,psychotropic effect in mice,mice,induced a psychotropic effect
same,Malachite (250 µM) % Inhib. SHIP1,[2]; 250 µM compound,7%
same,Malachite (500 µM) % Inhib. SHIP1,[2]; 500 µM compound,51%
same,activity against SHIP1 (in words),[2]; summary of Table 1,significant activity
